Assay results published in the NIST ThermoML archive (doi:10.1021/je200121f).

Columns and labels:
[1] = refractive index (Na D-line) (dimensionless); xn = mol fraction of the nth substance listed; details: 101 kPa, Liquid, Standard Abbe refractometry
[2] = xn = mol fraction of the nth substance listed; details: for surface tension liquid-gas: Ring tensiometer; for viscosity / speed of sound / mass density: 101 kPa, Liquid; for viscosity: Capillary tube (Ostwald / Ubbelohde) method; for speed of sound: Sing-around technique in a fixed-path interferometer; for mass density: Vibrating tube method

CC(O)CNCC(C)O (stereo not given) [N-(2-hydroxypropyl)-2-hydroxy-1-propanamine] + CN1CCCC1=O
Details	mass density, [2] [kg/m3]	refractive index, [1]	speed of sound, [2] [m/s]	surface tension liquid-gas, [2] [mN/m]	viscosity, [2] [mPa·s]
293.15 K, x2 = 0.7804	1021.9	1.4675	1535.6	39.7	4.857
293.15 K, x2 = 0.8882	1026.8	1.4682	1548.8	41.3	2.943
303.15 K, x2 = 0.4695	1006	1.4608	1483.8	37.1	20.25
303.15 K, x2 = 0.5721	1007.3	1.4616	1486.6	37.6	10.57
303.15 K, x2 = 0.6754	1010.8	1.4623	1494.7	38.3	6.229
303.15 K, x2 = 0.7804	1013.4	1.4635	1499.4	39	3.694
303.15 K, x2 = 0.8882	1018.2	1.4648	1511.9	40	2.371
313.15 K, x2 = 0.2764	993.1	1.4558	1443.5	36	38.27
313.15 K, x2 = 0.3733	994.5	1.4563	1445	36.2	21.14
313.15 K, x2 = 0.4695	997.8	1.4567	1450.8	36.7	11.24
313.15 K, x2 = 0.5721	998.9	1.4576	1453.3	37.2	7.051
313.15 K, x2 = 0.6754	1002.3	1.4582	1460.3	37.9	4.495
313.15 K, x2 = 0.7804	1004.8	1.4594	1463.7	38.5	2.89
313.15 K, x2 = 0.8882	1009.4	1.4607	1474.9	39.5	1.943
323.15 K, x2 = 0	984.1	1.4512	1420.3	34.5	125.73
323.15 K, x2 = 0.1049	984	1.451	1414.2	34.9	61.14
323.15 K, x2 = 0.1898	984.4	1.4511	1411.8	35.1	35.41
323.15 K, x2 = 0.2764	985.1	1.452	1412.2	35.1	20.93
323.15 K, x2 = 0.3733	986.4	1.4524	1413	35.3	12.67
323.15 K, x2 = 0.4695	988.2	1.4528	1415.4	36	7.412
323.15 K, x2 = 0.5721	990.6	1.4535	1419.6	36.5	5.022
323.15 K, x2 = 0.6754	993.5	1.4541	1424.3	37.1	3.42
323.15 K, x2 = 0.7804	996.8	1.4553	1428.6	37.7	2.33
323.15 K, x2 = 0.8882	1000.7	1.4565	1438.7	38.7	1.631
